These results are taken from patent publication US20220315908A1, “NOVEL GARDNERELLA ENDOLYSINS AND USES THEREOF” (priority 2019, published 2022).

In brackets after ≈: the same amount, converted by molar mass. Where only a bound is given, the exact number is not on record here.

This assay deals with G. swidsinskii (Gv_23). The assay is described as follows: MIC and MBC microbroth dilution. It counts as cell-based, Gardnerella swidsinskii. The note with it: for MIC / MBC: Gardnerella swidsinskii; for MIC: 48 h. The method, then:
One of the main deficiencies in the treatment of BV is the high rate of recurrence in many women, which leads to repeated administration of antibiotics and concomitant destabilization of the microbiome and other side effects. The minimal inhibitory concentration (MIC) and minimal bactericidal concentration (MBC) on Gardnerella cells of the strains also used for the endolysin activity assays were then measured using the method described in Reference Example 6 and 7. […] Essentially, Gardnerella suspensions at 2.5×10^7 CFU/ml were incubated with the concentration of antibiotics as indicated and incubated for 48 h at 37° C. under anaerobic conditions. […] OD(610) was measured at the beginning and the end of the experiment. At the end of the experiment, 2 ul of each reaction mix was spotted on agar to determine the MBC.
The conditions under which MIC and MBC were measured are more rigorous than the standard.
Example 7—Activity assays of a representative (H2B10) of domain swapped endolysins on the growth in suspension of different Gardnerella strains. […] The conditions under which MBC was measured are more rigorous than the standard. […] In general, it is known, that antibiotics only insufficiently eradicate the Gardnerella biofilm, a hallmark of BV, which is one suspected reason for the reported very high recurrence rate of BV. Despite leaving residual viable biofilm, antibiotics wipe parts of the beneficial organisms of the vaginal microbiome which then opens an ecological niche for other pathogens, e.g. fungi.
Bacteria were plated from cryo stock on BD Choc Agar plates (Gardnerella) and incubated at 37° C. for 48 h under anaerobic conditions. Colonies were scraped from the plate, resuspended in Hardy Broth or NYC-III-HS-pH 5.0, and the suspension adjusted to OD (610 or 620 nm as indicated) 0.05. It has to be noted that two Tecan Microplate readers, having respectively a 610 nm or 620 nm filter, have been used interchangeably in the experiments. Although it doesn't make any difference for the experiments, the exact wavelength used is specified in each example. Antibiotics were prepared as 20× stocks for each of the required final concentrations. 95 μl of cell suspension was mixed with 5 μl antibiotics dilution in a 384-well plate. OD (610-620 as indicated) at the start of the reaction was measured, then the plate was incubated at 37° C. for 48 h under anaerobic conditions. After that, the OD (610-620 as indicated) was measured again for MIC determination, where MIC was defined as the lowest concentration of antibiotic where the OD (610-620 as indicated) was not above the level measured at the beginning of the experiment. After measuring OD, 2 μl of each well were spotted on a NYC-III+HS Agar plate. The plates were then incubated for further 48 h at 37° C. under anaerobic conditions. After incubation, cell growth on each spot was evaluated, and the MBC defined as the lowest concentration of antibiotics where no bacteria grew on the plate. The experiments were conducted in triplicate for each condition. In the second round of MIC and MBC experiments with antibiotics the Gardnerella cell suspension was adjusted to the McFarland standard 0.5 (approximately OD (610) 0.07) and then diluted 1:75 according to the CLSI (Clinical and Laboratory Standards Institute) standards. Antibiotics were prepared according to the CLSI standards and 50 μl of cell suspension was mixed in a 96-well plate with 50 μl antibiotics. Otherwise the MIC and MBC was determined as described above.
(In general: Dilution methods test growth across graded concentrations, often in twofold steps.)

Consider `Cc1ncc([N+](=O)[O-])n1CCO` [Metronidazole], for which the MIC runs as follows: (first round: […]10^7 CFU/ml, Hardy broth, 384-well, 48 h 37° C. anaerobic) greater than 128 µg/mL; (second round: 1×10^5-1×10^6 CFU/ml (CLSI), NYC-III broth, 96-well, 48 h anaerobic) 32 µg/mL (≈ 187 µM). For the same compound, the MBC (second round: 1×10^5-1×10^6 CFU/ml (CLSI), NYC-III broth, 96-well) was greater than 128 µg/mL and the MBC (first round: 2.5×10^7 CFU/ml, minimal concentration fully eradicating the suspension) is greater than 128 µg/mL. For the same compound, the “resistance class of MIC, Metronidazole” value (first round) is listed as “R (>=32 μg/mi for Metronidazole)”. In addition, the “resistance class given with MBC, Metronidazole” value (second round) is “R (>=32 μg/mi for Metronidazole)”. Also, the “resistance class printed with MIC, Metronidazole” value (second round) is “R (>=32 μg/mi for Metronidazole)”.

A word on the MIC: it is the smallest concentration in the dilution series that meets the test's criterion for growth inhibition. Low values mean greater potency, high ones weaker potency. In general, MBC refers to the smallest concentration meeting the test's criterion for killing. Lower therefore signals greater bactericidal potency.
